Assay results published in patent publication US20210078932A1, “3,4-DIHYDROXYPHENETHYL 3-HYDROXYBUTANOATE, PREPARATION AND USE THEREOF” (XI'AN JIAOTONG UNIVERSITY, priority 2019, published 2021).

Experiments:
rats with brain fatigue [1] = assay: Open field test in sleep-deprivation brain fatigue rat model; format: in vivo, SD rats; details: for amelioration of manic mood of the rats with brain fatigue: overall conclusion after administration; for average moving speed / number of movements: sleep-deprived rats, drug intragastrically daily, compared with brain fatigue group; for average moving speed: FIG. 2A; for number of movements: FIG. 2B
Protocol: (§1) 8-week-old adult male SD rats (body weight: 250 g) purchased from Experimental Animal Center of The Second Military Medical University in Shanghai were used in the experiments. The rats were kept in an animal room with controlled temperature (22° C. to 28° C.) and humidity (60%). The light of the room was maintained in a 12 h/12 h day/night light cycle. The rats were able to eat and drink freely during the experiments. A brain fatigue rat model was established by using the sleep deprivation method in the experiments. The experimental rats were divided into five groups, with 10 rats in each group.
The five groups are as follows: (1) a normal feeding group with normal saline intragastrically administered daily (hereinafter referred to as the control group); (2) a brain fatigue model group established by the sleep deprivation method, with normal saline intragastrically administered daily (hereinafter referred to as the brain fatigue group); (3) a brain fatigue model group established by the sleep deprivation method, with 35 mg/kg of hydroxytyrosol acetate intragastrically administered daily (hereinafter referred to as HTac group, as shown in the following table); (4) a brain fatigue model group established by the sleep deprivation method, with 23.6 mg/kg of […] intragastrically administered daily (hereinafter referred to as HBET group, as shown in the following table); (5) a brain fatigue model group established by the sleep deprivation method, with 42.9 mg/kg of hydroxytyrosol hydroxybutyrate intragastrically administered daily (hereinafter referred to as HTHB group, as shown in Table 1).
The rats were preconditioned in the animal room for one week, during which the drugs were intragastrically administered. From the second day of the acquisition training of the water maze experiment, the rats other than the control group were started to be subjected to the small-platform-over-water sleep deprivation to establish the brain fatigue stress model. The sleep deprivation apparatus was mainly composed of two parts: a water tank and a platform disposed in the tank. The tank was filled with water. The size of the platform can only for the hind legs of the rat to stand. The platform was fixed to the bottom of the tank, and the top surface of the platform is above the water surface. The rat was placed on the platform for sleep deprivation. Once the rat fell asleep, its muscle tension would decrease and its center of gravity would move forward, which would cause the rat to fall into the water and suddenly be awakened. In order to avoid this, the rat must keep a slight grip on the edge of the platform, which deprived the sleep of the rat and caused brain fatigue.
The open field test is a classic behavioral test to evaluate emotion of rodents, which is based on the principle that the rodents have instincts to fear an open field and have spontaneous phobotaxis activities. Abnormalities in phobotaxis can indicate emotional abnormalities of rodents. The apparatus of the open field test was mainly composed of a black PVC box and a video tracking system. The box was 80 cm in both length and width and 50 cm in height. A camera of the video tracking system was hung at a height of 1.5 meters from the bottom of the box. The rat can move freely in the open field box, and the camera facing the box recorded the movements of the rat. By using the video tracking system, the interior of the box was divided into 16 squares arranged in 4×4 matrix, in which 12 surrounding squares were defined as a surrounding area, and 4 internal squares were defined as a central area, respectively.
The open field test follows the last day of the water maze experiment. After the water maze experiment, each rat was put back into the cage and rested for 10 minutes. Then in the open field test, the rat was placed at the center of the box bottom in a quiet environment, and was video recorded by the camera for 5 minutes, after which the rat was removed from the box. […]

rats with brain fatigue [2] = assay: Morris water maze experiment (exploration test) in sleep-deprivation brain fatigue rat model; format: in vivo, SD rats
Protocol: as §1, with “group. […]” for “group.”

Row | Compound | amelioration of manic mood of the rats with brain fatigue (rats with brain fatigue [1]) | average moving speed (rats with brain fatigue [1]) | improvement of learning and memory abilities of the rats with brain fatigue (rats with brain fatigue [2]; overall conclusion, compared with hydroxytyrosol acetate and ethyl β-hydroxybutyrate) | swimming time in the quadrant IV (percentage) (rats with brain fatigue [2]; sleep-deprived rats, drug intragastrically daily, compared with brain fatigue group, FIG. 1A) | amelioration of manic mood compared with hydroxytyrosol acetate and ethyl β-hydroxybutyrate (rats with brain fatigue [1]; overall comparison, in some indicators) | number of movements (rats with brain fatigue [1])
1 | CCOC(=O)CC(C)O (stereo not drawn) [HBET, ethyl β-hydroxybutyrate] | significantly ameliorated to certain degrees | significantly different |  |  |  | 
2 | CC(O)CC(=O)OCCc1ccc(O)c(O)c1 (centres unmarked) [HTHB, 3,4-dihydroxyphenethyl 3-hydroxybutanoate] | significantly ameliorated to certain degrees | significantly different | more obviously improved the learning and memory abilities | significantly different | better amelioration of manic mood | significantly different
3 | hydroxytyrosol acetate [HTac] | significantly ameliorated to certain degrees | significantly different |  |  |  | significantly different
